Assay results reported in patent US11116735B2, “Use of substituted benzylideneguanidine derivatives as synergists for polymyxin antibiotics” (GUANGZHOU INSIGHTER BIOTECHNOLOGY CO., LTD., priority 2015, dated 2021).
Where “and” joins values, the source holds several entries; their conditions need not be identical. Equal entries are not always repeated.

Columns and labels:
cherry valley ducks = assay: Combined application of compound 3 and colistin sulfate in duck feed; type: in vivo; details: 40 ppm colistin sulfate in feed, 21-day experiment
Procedure: 800 1-day-aged cherry valley ducks were divided into 4 groups according to Table 10, 4 parallels in each group and 50 ducks in each parallel. For each group, colistin sulfate and/or compound 3 were added into the feed. The ducks were kept in cages and given ad libitum access to feed and water during a 21-day experiment. Synergy of compound 3 and colistin sulfate on the ducks in the weight gain and feed efficiency was observed from the result (see Table 11).

P. aeruginosa E543 = assay: MIC, resistance reversal by various concentrations of compound 3, P. aeruginosa E543; details: colistin sulfate with 0 ppm compound 3, or compound 3 (hydrochloride) in the absence of colistin sulfate
Procedure: (§2) The compound 3 in this embodiment was in the form of a hydrochloride, i.e., the experiments were carried out with a hydrochloride of compound 3.
(§3) In vitro minimum inhibitory concentrations of colistin sulfate against the strains where the cultures respectively comprised various concentrations of compound 3 were also measured.

E. coli 2G-7 = assay: MIC by doubling dilution, colistin sulfate-resistant E. coli 2G-7; details: E. coli 2G-7, colistin sulfate-resistant; substance alone; derivatives as hydrochlorides
Procedure: (§4) In vitro minimum inhibitory concentrations of colistin sulfate against the strains where the cultures respectively comprised 20.0 ppm of the substituted benzylideneguanidine derivatives were also measured.

Klebsiella sp. 4125 = assay: MIC, resistance reversal by various concentrations of compound 3, Klebsiella sp. 4125; details: colistin sulfate with 0 ppm compound 3, or compound 3 (hydrochloride) in the absence of colistin sulfate
Procedure: as §2, §3

E. coli 5F-1 [1] = assay: MIC by doubling dilution, colistin sulfate-resistant E. coli 5F-1; details: E. coli 5F-1, colistin sulfate-resistant; substance alone; derivatives as hydrochlorides
Procedure: as §4

[2] = tested on: colistin sulfate-resistant E. coli strains; assay: MIC by doubling dilution, summary over colistin sulfate-resistant strains; details: bound that characterises the tested resistant E. coli strains
Procedure: as §4

E. coli 3Y-9 = assay: MIC by doubling dilution, colistin sulfate-susceptible E. coli 3Y-9; type: cell-based, Escherichia coli; details: E. coli 3Y-9, colistin sulfate-susceptible; substance alone; derivatives as hydrochlorides
weanling piglets [3] = assay: Synergy of compound 3 and colistin sulfate in the feed for weanling piglets; type: in vivo, Duroc×Landrace×Large crossbred lean weanling piglets; details: weanling piglets, only 20 ppm colistin sulfate in creep feed (Control 1, groups 4-6), ten days
Procedure: (§1) 120 28-day-aged Duroc×Landrace×Large crossbred lean weanling piglets similar in weight were divided into 12 groups, 10 piglets in each group. For each group, colistin sulfate and/or compound 3 were added into the antibiotic-free creep feed. The piglets were given ad libitum access to feed and water during the experiment. Weight gain, feed efficiency and diarrhea rate of each group within ten days were recorded.

E. coli 3H-4 = assay: MIC by doubling dilution, colistin sulfate-resistant E. coli 3H-4; details: E. coli 3H-4, colistin sulfate-resistant; substance alone; derivatives as hydrochlorides
Procedure: as §4

[4] = tested on: colistin sulfate-susceptible Escherichia coli strains; assay: MIC by doubling dilution, summary over colistin sulfate-susceptible strains; type: cell-based; details: bound that characterises the tested susceptible E. coli strains
Shigella sp. 2D89 = assay: MIC, resistance reversal by various concentrations of compound 3, Shigella sp. 2D89; details: colistin sulfate with 0 ppm compound 3, or compound 3 (hydrochloride) in the absence of colistin sulfate
Procedure: as §2, §3

E. coli 4D-6 = assay: MIC by doubling dilution, colistin sulfate-resistant E. coli 4D-6; details: E. coli 4D-6, colistin sulfate-resistant; substance alone; derivatives as hydrochlorides
Procedure: as §4

E. coli 3B-24 = assay: MIC by doubling dilution, colistin sulfate-susceptible E. coli 3B-24; type: cell-based, Escherichia coli; details: E. coli 3B-24, colistin sulfate-susceptible; substance alone; derivatives as hydrochlorides
E. coli 5F-1 [5] = assay: MIC, resistance reversal by various concentrations of compound 3, E. coli 5F-1; details: colistin sulfate with 0 ppm compound 3, or compound 3 (hydrochloride) in the absence of colistin sulfate
Procedure: as §2, §3

weanling piglets [6] = assay: Compound 3 in various dosages and colistin sulfate in the feed for weanling piglets; type: in vivo, Duroc×Landrace×Large crossbred lean weanling piglets; details: weanling piglets, only 20 ppm colistin sulfate in creep feed (control group), ten days
Procedure: as §1, with “90” for “120”, “9” for “12”, “and/or various dosages of” for “and/or”

[7] = tested on: fast-growing yellow feather broilers; assay: Combined application of compound 3 and colistin sulfate in chicken feed; type: in vivo; details: broilers, 50 ppm colistin sulfate in feed, 28-day experiment
Procedure: 800 1-day-aged fast-growing yellow feather broilers were divided into 4 groups, 4 parallels in each group and 50 broilers in each parallel. For each group, colistin sulfate and/or compound 3 were added into the feed. The chicken were kept in cages and given ad libitum access to feed and water during a 28-day experiment. Synergy of compound 3 and colistin sulfate on the chicken in the weight gain and feed efficiency was observed from the result (see Table 10).

weanling piglets [8] = assay: Synergy of derivatives and colistin sulfate in the feed for weanling piglets; type: in vivo, Duroc×Landrace×Large crossbred lean weanling piglets; details: creep feed with only 20 ppm colistin sulfate (control group), ten days
Procedure: as §1, with “90” for “120”, “9” for “12”, “various substituted benzylideneguanidine derivatives” for “compound 3”

E. coli 2S-19 = assay: MIC by doubling dilution, colistin sulfate-susceptible E. coli 2S-19; type: cell-based, Escherichia coli; details: E. coli 2S-19, colistin sulfate-susceptible; substance alone; derivatives as hydrochlorides
[9] = tested on: various colistin sulfate-resistant Gram-negative bacteria; assay: MIC by doubling dilution, summary over resistant species; details: bound that characterises the tested resistant strains
Procedure: as §2, §3

E. coli 5W-7 = assay: MIC by doubling dilution, colistin sulfate-susceptible E. coli 5W-7; type: cell-based, Escherichia coli; details: E. coli 5W-7, colistin sulfate-susceptible; substance alone; derivatives as hydrochlorides

colistin sulfate [reference compound]
Average daily weight gain (cherry valley ducks): 50.1 g | Feed conversion ratio (cherry valley ducks): 1.945 | Survival rate (cherry valley ducks): 100% | In vitro MIC of the substance alone (P. aeruginosa E543): 64.00 ppm | In vitro minimum inhibitory concentration (MIC) of the substance alone (E. coli 2G-7): 64 ppm and 64.0 ppm | In vitro MIC of the substance alone (Klebsiella sp. 4125): 64.00 ppm | In vitro minimum inhibitory concentration (MIC) of the substance alone (E. coli 5F-1 [1]): 128 ppm and 128.0 ppm | MIC value of colistin sulfate against the resistant strains [2]: higher than 4.0 ppm | In vitro minimum inhibitory concentration (MIC) of the substance alone (E. coli 3Y-9): 2.0 ppm and 2.00 ppm | Average daily weight gain (weanling piglets [3]): 215 g and 208 g and 217 g | Diarrhea rate (weanling piglets [3]): 31% and 29% and 33% | Feed conversion ratio (weanling piglets [3]): 1.654 and 1.598 and 1.623 | In vitro minimum inhibitory concentration (MIC) of the substance alone (E. coli 3H-4): 64 ppm and 64.0 ppm | MIC value of colistin sulfate against the susceptible strains [4]: lower than 4.0 ppm | In vitro MIC of the substance alone (Shigella sp. 2D89): 32.00 ppm | In vitro minimum inhibitory concentration (MIC) of the substance alone (E. coli 4D-6): 256 ppm and 256.0 ppm | In vitro minimum inhibitory concentration (MIC) of the substance alone (E. coli 3B-24): 2.0 ppm and 2.00 ppm | In vitro MIC of the substance alone (E. coli 5F-1 [5]): 128.00 ppm | Average daily weight gain (weanling piglets [6]): 211 g | Diarrhea rate (weanling piglets [6]): 33% | Feed conversion ratio (weanling piglets [6]): 1.672 | Average daily weight gain [7]: 39.8 g | Feed conversion ratio [7]: 1.965 | Survival rate [7]: 100% | Average daily weight gain (weanling piglets [8]): 219 g | Diarrhea rate (weanling piglets [8]): 33% | Feed conversion ratio (weanling piglets [8]): 1.649 | In vitro minimum inhibitory concentration (MIC) of the substance alone (E. coli 2S-19): 2.0 ppm and 2.00 ppm | MIC value of colistin sulfate against the resistant Gram-negative bacteria [9]: higher than 4.0 ppm | In vitro minimum inhibitory concentration (MIC) of the substance alone (E. coli 5W-7): 1.0 ppm and 1.00 ppm
